In this test the target is EGFP-HIF-1α fusion protein (Homo sapiens (Human), UniProt Q16665). The test is described as follows: Stabilization of HIF-1α in EGFP-HIF-1α-CHOhIR cell model (nuclear EGFP fluorescence imaging). It counts as cell-based. Conditions: CHOhIR cells stably expressing EGFP-HIF-1α; 3 h incubation; 0.03-30 μM; bipyridine 100 μM = 100% activation; read-out: Effects in stabilization of HIF-1α activity (EC50). On the procedure: CHOhIR cells (purchased from Thermo Fisher Scientific) which stably expressed EGFP-HIF-1α fusion protein were cultured under 37° C. and 5% CO2 in F12 culture solution containing 0.5 mg/ml G418 and 10% FBS, transplanted in an amount of 0.8×10^4 cells/100 μl/well on a 96-well culture plate that could be subjected to fluorescence detection, and cultured under 37° C. and 5% CO2 for 18-24 h. […] After the cells were incubated under 37° C. and 5% CO2 for 3 h, 12% formaldehyde in amount of 100 μl/well was added, fixation was carried out at room temperature for 30 min. Culture media was discarded, and the plate was washed with PBS twice, PBS containing 1 μM Hoechst was used, staining was performed at room temperature for 1 h. Detection was performed by IN Cell Analyzer 1000 live cell imaging system. Detection conditions were: 20× objective lens, excitation wavelength Ex=460 nm, emission wavelength […] to detect blue-fluorescence of cell nucleus passage; excitation wavelength Ex=475 nm, emission wavelength Em=535 nm, exposure 500 ms to detect green-fluorescence EGFP of cytoplasm passage, and pictures were taken continuously in 5 fields of view for each well. IN Cell Analyzer 1000 Multitarget Analysis Module of GE Company was used for analyzing aggregation of green-fluorescence of HIF-1α in cell nucleus, and BP100 μM treatment group was used as 100% activation of HIF-1α.

25 compounds from patent US10196346B2, “Substituted acethydrazide derivative, preparation method and use thereof” (Institute of Pharmacology and Toxicology Academy of …, priority 2014, dated 2019) can be followed below.

For orientation: EC50 means the concentration that produces a half-maximal response.

Molecules are shown by their SMILES.

On to `COc1cccc(/C=N/NC(=O)CN(C)CCN(C)Cc2cccc3ccccc23)c1O` [Example 1, (E)-N′-(3-methoxy-2-hydroxybenzal)-2-{N-{2-[N-(naphthalen-1-yl-methylene)-N-methylamino]ethyl}N-methylamino}acethydrazide], for which the EC50 is 2290 ± 270 nM.
To `CN(CCN(C)Cc1cccc2ccccc12)CC(=O)N/N=C/c1cc(C(C)(C)C)cc(C(C)(C)C)c1O` [Example 2, (E)-N′-(3,5-di-tert-butyl-2-hydroxybenzal)-2-{N-{2-[N-(naphthalen-1-yl-methylene)-N-methylamino]ethyl}N-methylamino}acethydrazide] belongs 17800 ± 4810 nM.
On to `CCOc1cccc(/C=N/NC(=O)CN(C)CCN(C)Cc2cccc3ccccc23)c1O` [Example 3, (E)-N′-(3-ethoxy-2-hydroxybenzal)-2-{N-{2-[N-(naphthalen-1-yl-methylene)-N-methylamino]ethyl}N-methylamino}acethydrazide], for which the EC50 was found to be 2110 ± 850 nM.
To `CN(CCN(C)Cc1cccc2ccccc12)CC(=O)N/N=C/c1c(O)ccc2ccccc12` [Example 4, (E)-N′-[(2-hydroxynaphthalen-1-yl)methylene]-2-{N-{2-[N-(naphthalen-1-yl-methylene)-N-methylamino]ethyl}N-methylamino}acethydrazide] belongs 830 ± 180 nM.
In the case of `CCN(CC)c1ccc(/C=N/NC(=O)CN(C)CCN(C)Cc2cccc3ccccc23)c(O)c1` [Example 5, (E)-N′-(4-N,N-diethylamino-2-hydroxybenzal)-2-{N-{2-[N-(naphthalen-1-yl-methylene)-N-methylamino]ethyl}N-methylamino}acethydrazide], the EC50 was 780 ± 140 nM.
To `CN(CCN(C)Cc1cccc(C(F)(F)F)c1)CC(=O)N/N=C/c1cc(C(C)(C)C)cc(C(C)(C)C)c1O` [Example 8, (E)-N′-(3,5-di-tert-butyl-2-hydroxybenzal)-2-{N-{2-[N-(3-trifluoromethylbenzyl)-N-methylamino]ethyl}N-methylamino}acethydrazide] belongs 5230 ± 1390 nM.
In the case of `CCN(CC)c1ccc(/C=N/NC(=O)CN(C)CCN(C)Cc2cccc(C(F)(F)F)c2)c(O)c1` [Example 10, (E)-N′-(4-N,N-diethylamino-2-hydroxybenzal)-2-{N-{2-[N-(3-trifluoromethylbenzyl)-N-methylamino]ethyl}N-methylamino}acethydrazide], the EC50 was determined as 600 ± 180 nM.
To `CN(CCN(C)Cc1cccc(C(F)(F)F)c1)CC(=O)N/N=C/c1cccc(O)c1O` [Example 11, (E)-N′-(2,3-dihydroxybenzal)-2-{N-{2-[N-(3-trifluoromethylbenzyl)-N-methylamino]ethyl}N-methylamino}acethydrazide] belongs 170 ± 40 nM; to `CCOc1cccc(/C=N/NC(=O)CN(C)CCN(C)Cc2ccc(C(C)C)cc2)c1O` [Example 13, (E)-N′-[(3-ethoxy-2-hydroxybenzal)methylene]-2-{N-{2-[N-(4-isopropylbenzyl)-N-methylamino]ethyl}N-methylamino}acethydrazide], 800 ± 190 nM.
To `CC(C)c1ccc(CN(C)CCN(C)CC(=O)N/N=C/c2c(O)ccc3ccccc23)cc1` [Example 14, (E)-N′-[(2-hydroxynaphthalen-1-yl)methylene]-2-{N-{2-[N-(4-isopropylbenzyl)-N-methylamino]ethyl}N-methylamino}acethydrazide] belongs 1020 ± 340 nM; to `CC(C)c1ccc(CN(C)CCN(C)CC(=O)N/N=C/c2cc(C(C)(C)C)cc(C(C)(C)C)c2O)cc1` [Example 15, (E)-N′-(3,5-di-tert-butyl-2-hydroxybenzal)-2-{N-{2-[N-(4-isopropylbenzyl)-N-methylamino]ethyl}N-methylamino}acethydrazide], 11200 ± 2870 nM; to `CC(C)c1ccc(CN(C)CCN(C)CC(=O)N/N=C/c2cccc(O)c2O)cc1` [Example 17, (E)-N′-(2,3-dihydroxybenzal)-2-{N-{2-[N-(4-isopropylbenzyl)-N-methylamino]ethyl}N-methylamino}acethydrazide], 560 ± 150 nM.
Regarding `CC(C)c1ccc(CN(C)CCN(C)CC(=O)N/N=C/c2cc(Br)ccc2O)cc1` [Example 18, (E)-N′-(3-bromo-6-hydroxybenzal)-2-{N-{2-[N-(4-isopropylbenzyl)-N-methylamino]ethyl}N-methylamino}acethydrazide], the EC50 is 2280 ± 670 nM.
With `COc1cccc(CN(C)CCN(C)CC(=O)N/N=C/c2cc(C(C)(C)C)cc(C(C)(C)C)c2O)c1` [Example 22, (E)-N′-(3,5-di-tert-butyl-2-hydroxybenzal)-2-{N-{2-[N-(3-methoxybenzyl)-N-methylamino]ethyl}N-methylamino}acethydrazide], the EC50 stood at 2770 ± 310 nM.
To `CCN(CC)c1ccc(/C=N/NC(=O)CN(C)CCN(C)Cc2cccc(OC)c2)c(O)c1` [Example 23, (E)-N′-(4-N,N-diethylamino-2-hydroxybenzal)-2-{N-{2-[N-(3-methoxybenzyl)-N-methylamino]ethyl}N-methylamino}acethydrazide] belongs 760 ± 150 nM; to `COc1cccc(CN(C)CCN(C)CC(=O)N/N=C/c2cccc(O)c2O)c1` [Example 24, (E)-N′-(2,3-dihydroxybenzal)-2-{N-{2-[N-(3-methoxybenzyl)-N-methylamino]ethyl}N-methylamino}acethydrazide], 820 ± 90 nM.
To `COc1cccc(CN(C)CCN(C)CC(=O)N/N=C/c2cc(Br)ccc2O)c1` [Example 25, (E)-N′-(3-bromo-6-hydroxybenzal)-2-{N-{2-[N-(3-methoxybenzyl)-N-methylamino]ethyl}N-methylamino}acethydrazide] belongs 7190 ± 1270 nM.
Regarding `CN(CCN(C)Cc1ccc(C#N)cc1)CC(=O)N/N=C/c1c(O)ccc2ccccc12` [Example 26, (E)-N′-[(2-hydroxynaphthalen-1-yl)methylene]-2-{N-{2-[N-(4-cyanobenzyl)-N-methylamino]ethyl}N-methylamino}acethydrazide], the EC50 amounted to 980 ± 100 nM.
Consider `CN(CCN(C)Cc1ccc(C#N)cc1)CC(=O)N/N=C/c1cc(C(C)(C)C)cc(C(C)(C)C)c1O` [Example 27, (E)-N′-(3,5-di-tert-butyl-2-hydroxybenzal)-2-{N-{2-[N-(4-cyanobenzyl)-N-methylamino]ethyl}N-methylamino}acethydrazide], for which the EC50 came out at 7750 ± 1330 nM.
For the compound `COc1cccc(/C=N/NC(=O)CN(C)CCN(C)Cc2ccc(C#N)cc2)c1O` [Example 28, (E)-N′-(3-methoxy-2-hydroxybenzal)-2-{N-{2-[N-(4-cyanobenzyl)-N-methylamino]ethyl}N-methylamino}acethydrazide], the EC50 amounted to 8420 ± 3150 nM.
For the compound `CCOc1cccc(/C=N/NC(=O)CN(C)CCN(C)Cc2ccc(C#N)cc2)c1O` [Example 29, (E)-N′-(3-ethoxy-2-hydroxybenzal)-2-{N-{2-[N-(4-cyanobenzyl)-N-methylamino]ethyl}N-methylamino}acethydrazide], the EC50 amounted to 2770 ± 390 nM.
On to `CCN(CC)c1ccc(/C=N/NC(=O)CN(C)CCN(C)Cc2ccc(C#N)cc2)c(O)c1` [Example 30, (E)-N′-(4-N,N-diethylamino-2-hydroxybenzal)-2-{N-{2-[N-(4-cyanobenzyl)-N-methylamino]ethyl}N-methylamino}acethydrazide], for which the EC50 stood at 530 ± 20 nM.
As to `COc1cccc(/C=N/NC(=O)CN(C)CCN(C)Cc2ccc(C(C)(C)C)cc2)c1O` [Example 31, (E)-N′-(3-methoxy-2-hydroxybenzal)-2-{N-{2-[N-(4-tert-butylbenzyl)-N-methylamino]ethyl}N-methylamino}acethydrazide], the EC50 worked out at 2760 ± 780 nM.
Regarding `CCOc1cccc(/C=N/NC(=O)CN(C)CCN(C)Cc2ccc(C(C)(C)C)cc2)c1O` [Example 32, (E)-N′-(3-ethoxy-2-hydroxybenzal)-2-{N-{2-[N-(4-tert-butylbenzyl)-N-methylamino]ethyl}N-methylamino}acethydrazide], the EC50 was determined as 1860 ± 570 nM.
With `CCN(CC)c1ccc(/C=N/NC(=O)CN(C)CCCN(C)Cc2ccc(C(C)(C)C)cc2)c(O)c1` [Example 33, (E)-N′-(4-N,N-diethylamino-2-hydroxybenzal)-2-{N-{3-[N-(4-tert-butylbenzyl)-N-methylamino]propyl}N-methylamino}acethydrazide], the EC50 was found to be 130 ± 20 nM.
